The values below come from patent US10758534B2 (Vertex Pharmaceuticals Incorporated, priority 2014, dated 2020).

One may read the EC30 as the concentration at which the effect reaches the 30% level.

T1 sequence (P13569 with tags, fused parts or gaps DEL508-508): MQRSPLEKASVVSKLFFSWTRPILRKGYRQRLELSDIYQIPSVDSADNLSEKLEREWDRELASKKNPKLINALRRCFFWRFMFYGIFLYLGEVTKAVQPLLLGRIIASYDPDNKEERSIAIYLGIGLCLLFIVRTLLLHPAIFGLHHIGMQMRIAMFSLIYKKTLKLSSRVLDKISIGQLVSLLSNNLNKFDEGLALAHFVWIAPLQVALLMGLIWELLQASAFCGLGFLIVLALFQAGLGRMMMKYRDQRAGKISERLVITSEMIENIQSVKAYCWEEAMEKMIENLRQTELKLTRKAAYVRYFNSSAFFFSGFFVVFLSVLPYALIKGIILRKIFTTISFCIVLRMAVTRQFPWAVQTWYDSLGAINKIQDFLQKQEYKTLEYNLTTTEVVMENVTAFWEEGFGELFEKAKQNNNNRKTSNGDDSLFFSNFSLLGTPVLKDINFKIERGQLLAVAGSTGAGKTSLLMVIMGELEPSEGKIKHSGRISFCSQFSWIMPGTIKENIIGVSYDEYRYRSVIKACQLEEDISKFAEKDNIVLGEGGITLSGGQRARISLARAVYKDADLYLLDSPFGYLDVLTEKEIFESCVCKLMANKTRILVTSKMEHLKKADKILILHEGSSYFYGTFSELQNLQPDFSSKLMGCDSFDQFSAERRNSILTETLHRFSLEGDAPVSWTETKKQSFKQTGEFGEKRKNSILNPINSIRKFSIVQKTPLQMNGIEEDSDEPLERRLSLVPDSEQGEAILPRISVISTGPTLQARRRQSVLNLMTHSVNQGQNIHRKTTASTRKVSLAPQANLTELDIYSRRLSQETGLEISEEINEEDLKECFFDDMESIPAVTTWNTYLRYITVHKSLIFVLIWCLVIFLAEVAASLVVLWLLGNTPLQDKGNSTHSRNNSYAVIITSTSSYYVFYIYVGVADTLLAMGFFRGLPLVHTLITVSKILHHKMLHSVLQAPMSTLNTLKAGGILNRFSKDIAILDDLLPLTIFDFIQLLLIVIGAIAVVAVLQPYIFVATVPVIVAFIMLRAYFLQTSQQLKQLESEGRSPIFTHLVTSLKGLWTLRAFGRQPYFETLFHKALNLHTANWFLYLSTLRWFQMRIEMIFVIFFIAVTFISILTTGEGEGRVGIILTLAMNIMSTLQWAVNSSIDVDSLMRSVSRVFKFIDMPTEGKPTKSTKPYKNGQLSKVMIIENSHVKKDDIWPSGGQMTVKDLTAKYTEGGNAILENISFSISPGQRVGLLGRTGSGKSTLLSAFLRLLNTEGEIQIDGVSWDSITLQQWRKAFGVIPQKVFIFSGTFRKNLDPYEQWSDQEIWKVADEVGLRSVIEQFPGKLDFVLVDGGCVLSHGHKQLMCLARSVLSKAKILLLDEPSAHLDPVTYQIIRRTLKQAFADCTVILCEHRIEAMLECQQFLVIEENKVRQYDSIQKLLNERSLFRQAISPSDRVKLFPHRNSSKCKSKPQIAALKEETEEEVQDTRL

One experiment has as its target T1, F508del (Homo sapiens, UniProt P13569, DEL508-508).
T1 construct: expressed in transfected cells
The experiment in a line: Protocol 2: FRET membrane potential optical assay (VIPR), identification of correction compounds. To be noted: F508del CFTR modulator activity; compounds of Table 1; read-out: EC30. It is filed as cell-based. Summed up: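 NIH3T3 mouse fibroblasts stably expressing F508del were treated with test compound for 16 hrs at 37° C. in serum-free medium; 27° C. incubation served as positive control. F508del was activated with 10 μM forskolin plus 20 μM genistein in Cl^−-free medium, and Cl^− efflux-driven depolarization was read by DiSBAC2(3)/CC2-DMPE FRET.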
Turning to `C[C@@H]1CN(c2nc(-c3cccc(F)c3F)ccc2C(=O)NS(=O)(=O)c2ccc[nH]c2=O)C(C)(C)C1` [Compound 2162, 6-(2,3-difluorophenyl)-N-[(2-oxo-1H-pyridin-3-yl)sulfonyl]-2-[(4S)-2,2,4-trimethylpyrrolidin-1-yl]pyridine-3-carboxamide], the EC30 is below 3 µM.
The same measure, in the same setting: next, `CC1CN(c2ncccc2C(=O)NS(=O)(=O)c2cccc(NC3CCCC3)n2)C(C)(C)C1` (stereo not shown) [Compound 2053, N—[[6-(cyclopentylamino)-2-pyridyl]sulfonyl]-2-(2,2,4-trimethylpyrrolidin-1-yl)pyridine-3-carboxamide]: below 3 µM; `C[C@@H]1CN(c2nc(-c3ccccc3OC(F)(F)F)ccc2C(=O)NS(=O)(=O)c2ccc[nH]c2=O)C(C)(C)C1` [Compound 2514, N-[(2-oxo-1H-pyridin-3-yl)sulfonyl]-6-[2-(trifluoromethoxy)phenyl]-2-[(4S)-2,2,4-trimethylpyrrolidin-1-yl]pyridine-3-carboxamide]: below 3 µM.
With `Cc1ccccc1-c1ccc(C(=O)NS(=O)(=O)c2ccc[nH]c2=O)c(N2C[C@@H](C)CC2(C)C)n1` [Compound 2176, 6-(o-tolyl)-N-[(2-oxo-1H-pyridin-3-yl)sulfonyl]-2-[(4S)-2,2,4-trimethylpyrrolidin-1-yl]pyridine-3-carboxamide], the EC30 is below 3 µM.
On to `CCOCCNc1ncc(-c2ccc(C(=O)NS(=O)(=O)c3cccc(N)n3)c(N3C[C@@H](C)CC3(C)C)n2)cc1C` [Compound 2683], for which the EC30 was below 3 µM.
Take `CC1CN(c2ncccc2C(=O)NS(=O)(=O)c2cccc(OCCC(C)(C)C)n2)C(C)(C)C1` (stereo not shown) [Compound 2025, N—[[6-(3,3-dimethylbutoxy)-2-pyridyl]sulfonyl]-2-(2,2,4-trimethylpyrrolidin-1-yl)pyridine-3-carboxamide]: the EC30 was below 3 µM.
Turning to `COc1ccc(COc2cccc(S(=O)(=O)NC(=O)c3cccnc3N3CC(C)CC3(C)C)n2)cc1` (stereo not shown) [Compound 2428, N—[[6-[(4-methoxyphenyl)methoxy]-2-pyridyl]sulfonyl]-2-(2,2,4-trimethylpyrrolidin-1-yl)pyridine-3-carboxamide], the concentration for an effect of 30% (EC30) is below 3 µM.
On to `CC1CN(c2ncccc2C(=O)NS(=O)(=O)c2cccc(N(C)Cc3cccc(Cl)c3)n2)C(C)(C)C1` (stereo not shown) [Compound 2378, N—[[6-[(3-chlorophenyl)methyl-methyl-amino]-2-pyridyl]sulfonyl]-2-(2,2,4-trimethylpyrrolidin-1-yl)pyridine-3-carboxamide], for which the EC30 is below 3 µM.
For the compound `CC(C)Cn1ccc(-c2ccc(C(=O)NS(=O)(=O)c3cccc(N)n3)c(N3C[C@@H](C)CC3(C)C)n2)n1` [Compound 2114, N-[(6-amino-2-pyridyl)sulfonyl]-6-(1-isobutylpyrazol-3-yl)-2-[(4S)-2,2,4-trimethylpyrrolidin-1-yl]pyridine-3-carboxamide], the EC30 is below 3 µM.
As to `COc1cc(OC)cc(Oc2cccc(S(=O)(=O)NC(=O)c3cccnc3N3CC(C)CC3(C)C)n2)c1` (stereo not shown) [Compound 2293, N—[[6-(3,5-dimethoxyphenoxy)-2-pyridyl]sulfonyl]-2-(2,2,4-trimethylpyrrolidin-1-yl)pyridine-3-carboxamide], the EC30 was below 3 µM.
Consider `CC(C)COc1ccccc1-c1ccc(C(=O)NS(=O)(=O)c2ccc[nH]c2=O)c(N2C[C@@H](C)CC2(C)C)n1` [Compound 2629, 6-(2-isobutoxyphenyl)-N-[(2-oxo-1H-pyridin-3-yl)sulfonyl]-2-[(4S)-2,2,4-trimethylpyrrolidin-1-yl]pyridine-3-carboxamide], for which the EC30 is below 3 µM.
On the same count and under the same terms, next, `CC1CN(c2ncccc2C(=O)NS(=O)(=O)c2cccc(Oc3cccc(Cl)c3F)n2)C(C)(C)C1` (stereo not shown) [Compound 2165, N—[[6-(3-chloro-2-fluoro-phenoxy)-2-pyridyl]sulfonyl]-2-(2,2,4-trimethylpyrrolidin-1-yl)pyridine-3-carboxamide]: below 3 µM.

Staying with this experiment, now noted: Table 3; compounds of Table 1 as modulators of CFTR activity; protocol not stated.
`COc1cccc(S(=O)(=O)NC(=O)c2ccc(C(C)(C)C)nc2Oc2c(C)cc(C)cc2C)c1` [Compound 56, 6-tert-butyl-N-(3-methoxyphenyl)sulfonyl-2-(2,4,6-trimethylphenoxy)pyridine-3-carboxamide]: the EC30 result is “+++ (“+++” means <3 uM)”.
As for `CCC1CCN(c2nc(-c3cc(F)cc(OCC(C)C)c3)ccc2C(=O)NS(=O)(=O)c2cccc(N)n2)CC1` [Compound 615, N-[(6-amino-2-pyridyl)sulfonyl]-2-(4-ethyl-1-piperidyl)-6-(3-fluoro-5-isobutoxy-phenyl)pyridine-3-carboxamide], the EC30 entry is on record as “+++ (“+++” means <3 uM)”.
The same measure, in the same setting: next, `Cc1cc(C)c(CN2Cc3c(C(C)C)cccc3C2C(=O)NS(=O)(=O)c2cccc(N)c2)c(C)c1` (stereo not shown) [Compound 299, N-(3-aminophenyl)sulfonyl-4-isopropyl-2-[(2,4,6-trimethylphenyl)methyl]isoindoline-1-carboxamide]: “+++ (“+++” means <3 uM)”; `CCCOc1cc(-c2ccc(C(=O)NS(=O)(=O)c3cccc(N)n3)c(N3CC(C)CC3(C)C)n2)ccn1` (stereo not shown) [Compound 491, N-[(6-amino-2-pyridyl)sulfonyl]-6-(2-propoxy-4-pyridyl)-2-(2,2,4-trimethylpyrrolidin-1-yl)pyridine-3-carboxamide]: “+++ (“+++” means <3 uM)”; `Cc1cc(C)c(CCn2nc(C(C)(C)C)cc2C(=O)NS(=O)(=O)c2cccc(N)c2)c(C)c1` [Compound 7, N-(3-aminophenyl)sulfonyl-5-tert-butyl-2-[2-(2,4,6-trimethylphenyl)ethyl]pyrazole-3-carboxamide]: “+++ (“+++” means <3 uM)”.
Take `CC(C)Oc1ccc(-c2ccc(C(=O)NS(=O)(=O)c3cccc(N)n3)c(N3CCCC(F)C3)n2)cn1` (stereo not shown) [Compound 745, N-[(6-amino-2-pyridyl)sulfonyl]-2-(3-fluoro-1-piperidyl)-6-(6-isopropoxy-3-pyridyl)pyridine-3-carboxamide]: the EC30 result is “++ (“++” means between 3 uM and 10 uM)”.
On the same count and under the same terms, next, `Cc1cc(C)c(Oc2nc(C(C)(C)C)cnc2C(=O)NS(=O)(=O)c2cccc(N)c2)c(C)c1` [Compound 141, N-(3-aminophenyl)sulfonyl-5-tert-butyl-3-(2,4,6-trimethylphenoxy)pyrazine-2-carboxamide]: “+++ (“+++” means <3 uM)”; `Cc1cc(C)c(Oc2nc(-c3ccc(OC(C)C)cc3)ccc2C(=O)NS(=O)(=O)c2ccc[nH]c2=O)c(C)c1` [Compound 494, 6-(4-isopropoxyphenyl)-N-[(2-oxo-1H-pyridin-3-yl)sulfonyl]-2-(2,4,6-trimethylphenoxy)pyridine-3-carboxamide]: “+++ (“+++” means <3 uM)”.
Regarding `Cc1cc(C)c(Cn2nc(C(C)(C)C)cc2C(=O)NS(=O)(=O)c2cccc(N)c2C)c(C)c1` [Compound 123, N-(3-amino-2-methyl-phenyl)sulfonyl-5-tert-butyl-2-[(2,4,6-trimethylphenyl)methyl]pyrazole-3-carboxamide], the 30% effect concentration (EC30) entry is “+++ (“+++” means <3 uM)”.
For the compound `Cc1cc(C)c(CN2CC(C)(C)c3ccccc3C2C(=O)NS(=O)(=O)c2cccc(N)n2)c(C)c1` (stereo not shown) [Compound 140, N-[(6-amino-2-pyridyl)sulfonyl]-4,4-dimethyl-2-[(2,4,6-trimethylphenyl)methyl]-1,3-dihydroisoquinoline-1-carboxamide], the EC30 result was “+++ (“+++” means <3 uM)”.
